Tests used:
Jurkat cells = assay: Confocal microscopic analysis of intracellular translocation of synthetic peptides in Jurkat cells; format: cell-based
Description: (§1) Three kinds of cells were used for incorporating the peptides: CHO cells (ATCC NO. CCL-61), HeLa cells, and Jurkat cells. 10^4 CHO cells and HeLa cells and 10^5 Jurkat cells were separately inoculated to a 96-well plate, and cultured for 2 or 3 days. Subsequently, when the cells became confluent, each peptide solution was added to each type of cell, and the cells were incubated for 1 hour. After each type of cell was washed with PBS three times, 100 μL of 0.25% trypsin-1 mM EDTA solution was added, and trypsinization was performed at room temperature for 5 minutes. After 400 μL of PBS (10% FCS) was added to neutralize the trypsin, the cells were washed with 1 mL of HBSS (Hanks' Balanced Salt Solution/produced by Invitrogen) three times. After the washing, the cells were suspended in 50 μL of HBSS and analyzed using a confocal microscope. Measurements and analysis were performed using a confocal differential interference laser microscope system (Bio-Rad, Radience2100/Green He-Ne, 488 nm, microscope: Nikon, ECLIPSE E600).
In Jurkat cells as well, intracellular translocation experiments of synthetic peptides of modified PTD sequences were performed by confocal microscopic analysis.

[1] = tested on: CHO cells, HeLa cells, and Jurkat cells; assay: Confocal microscopic analysis of intracellular translocation of fluorescence-labeled peptides; format: cell-based; conditions: for intracellular translocation compared with KSH2: FITC-labeled peptide; for capability of intracellular translocation compared with KSH2: FITC-labeled peptides in CHO, HeLa, and Jurkat cells
Excerpt: With the PTD derived from HIV TAT protein shown by SEQ ID NO:50 in the sequence listing as the positive control (in FIG. 1 to FIG. 3, denoted by “Positive” or “TAT”), and a mutant of the TAT-derived PTD shown by SEQ ID NO:51 in the sequence listing, reported by Ulo Langel et al. (Cell-Penetrating Peptides: Processes and Applications, Series: Pharmacology and Toxicology: Basic and Clinical Aspects Volume:3, 2002), as the negative control (in FIG. 1, denoted by “Negative”), the peptides of the 11 sequences selected in Example 1-1 were evaluated.
The peptides of the 11 sequences selected in Example 1-1 were synthesized by the solid phase method, and fluorescently labeled by coupling 5,6-Carboxyfluorescein to the N-terminus of each peptide. Furthermore, the peptides were purified by HPLC to obtain a purity of 70% or more. Subsequently, each fluorescently labeled peptide was dissolved in 10% Dimethyl Sulfoxide (DMSO) to obtain 1 mM (hereinafter referred to as peptide solution).
as §1
Of the novel PTD sequences found in Example 5, the KSH2 peptide is highly capable of translocating eGFP into cells; an attempt was made to modify the KSH2 peptide. The KSH2-1 to KSH2-4 peptides (SEQ ID NOS:44 to 47 in the sequence listing) were synthesized, fluorescently labeled, purified and dissolved in the same manner as Example 1-2, a test of translocation into CHO cells was performed, and confocal microscopic analysis was performed.
First, two cases were examined: two cysteines were substituted with alanine (KSH2-1) or with tryptophan (KSH2-2). FITC-labeled peptides were synthesized, and their intracellular translocation efficiencies were examined using CHO, HeLa, and Jurkat cells (FIG. 21, the peptide addition concentration was 50 μM, 25 μM or 12.5 μM).

| Substance | intracellular translocation compared with KSH2 ([1]; 25 μM) | intracellular translocation compared with KSH2 ([1]; 50 μM) | capability of intracellular translocation compared with KSH2 [1] | also measured |
| --- | --- | --- | --- | --- |
| KSH1-21: alanine substitution form of KSH1-1 (RLWMRWYSPTARRYG; Designed peptide to act as PTD(Protein Transduction Domain)) | – | – | – | intracellular translocation in Jurkat cells as compared to that of SEQ ID NO:37 (Jurkat cells): better intracellular translocation |
| KSH2-1: KSH2 with two cysteines substituted with alanine (WKARRQAFRVLHHWN; Designed peptide to act as PTD(Protein Transduction Domain)) | remarkably decreased intracellular translocation | higher intracellular translocation than KSH2 | – | – |
| KSH2-2: KSH2 with two cysteines substituted with tryptophan (WKWRRQWFRVLHHWN; Designed peptide to act as PTD(Protein Transduction Domain)) | higher intracellular translocation efficiency than KSH2 | higher intracellular translocation than KSH2 | – | intracellular translocation compared with KSH2 ([1]; 12.5 μM): higher intracellular translocation efficiency than KSH2 |
| KSH2-3: KSH2 with one of the two cysteines substituted with alanine (WKARRQCFRVLHHWN; Designed peptide to act as PTD(Protein Transduction Domain)) | – | – | accentuated | – |
| KSH2-4: KSH2 with one of the two cysteines substituted with alanine (WKCRRQAFRVLHHWN; Designed peptide to act as PTD(Protein Transduction Domain)) | – | – | accentuated | – |

Reference: patent US8691528B2, “Cell penetrating peptide” (Mitsubishi Tanabe Pharma Corporation, priority 2005, dated 2014)
